Numbers after ± are expanded uncertainties.
Details: 101 kPa, Liquid

O [water]
Details | mass density [kg/m3] | viscosity [mPa·s]
278.1 K | 999.9 ± 4.4 | 1.519 ± 0.072
283.1 K | 999.7 ± 4.2 | 1.308 ± 0.063
288.15 K | – | 1.14 ± 0.056
293.15 K | – | 1.005 ± 0.05
298.15 K | – | 0.894 ± 0.045
303.15 K | – | 0.799 ± 0.041
308.15 K | 994.1 ± 4.3 | 0.723 ± 0.038
313.15 K | – | 0.655 ± 0.035
318.15 K | – | 0.599 ± 0.032
323.15 K | – | 0.548 ± 0.03

CCO [ethanol]
Details | mass density [kg/m3] | viscosity [mPa·s]
268.1 K | 811.1 ± 3.8 | 1.975 ± 0.093
273.1 K | 806.8 ± 3.6 | 1.775 ± 0.084
278.1 K | 802.6 ± 3.4 | 1.629 ± 0.077
283.1 K | 798.4 ± 3.1 | 1.468 ± 0.07
288.15 K | 794.2 ± 2.9 | 1.341 ± 0.065
293.15 K | 789.9 ± 2.7 | 1.207 ± 0.059
298.15 K | 785.7 ± 2.9 | 1.105 ± 0.054
303.15 K | 781.4 ± 3.1 | 1.01 ± 0.05
308.15 K | 777.1 ± 3.2 | 0.92 ± 0.046
313.15 K | 772.8 ± 3.4 | 0.84 ± 0.043
318.15 K | 767.9 ± 3.6 | 0.772 ± 0.04
323.15 K | 763.4 ± 3.7 | 0.713 ± 0.037
